Legend:
[1] = test system: Tibial organ cultures (E15.5); experiment: Tibial organ culture (ex vivo); design: species or system mice; conditions: 100 nM for 6 days
Description: Tibial organ culture. Tibiae were isolated from embryonic day 15.5 (e15.5) mice and cultured for 6 days in phenol red-free a-MEM (Gibco) containing ascorbic acid, β-glycerophosphate, BSA, L-glutamine, and penicillin-streptomycin, as previously described (Gillespie et al, 2011). After dissection, tibiae were incubated in medium overnight and then treated with E2 (Sigma-Aldrich). Media and reagents were changed every 48 hours. Tibial images were captured using a SMZ-745T microscope (Nikon). Tibial length was measured prior to treatment and after 6 days in culture. The samples were then prepared for paraffin embedding, sectioned, and analyzed by H&E and IHC staining.

[2] = test system: growth plates of proximal tibiae of mice; experiment: Growth plate senescence and longitudinal bone growth in mice; assay type: in vivo
Description: (§1) Animals. Cxxc5^−/− mice were established in a previous study. See e.g., Kim H. Y. et al. (2015), CXXC5 is a negative feedback regulator of the Wnt/beta-catenin pathway involved in osteoblast differentiation. CELL DEATH DIFFER 22: 912-920. To manipulate growth plate senescence by estrogen, 3-week-old […] Cxxc5^−/− male mice received weekly intramuscular (i.m.) injections of either 70 μg/kg estradiol (E2) cypionate (Sigma-Aldrich) or vehicle (cottonseed oil) for 3 weeks. To investigate the effects of KY19382 treatment on longitudinal bone growth, C57BL/6 male mice were purchased from KOATECH (Gyeonggido, Korea). KY19382 (0.1 ing/kg) was administered daily by intraperitoneal (i.p.) injection to 3- and 7-week-old mice for 2 weeks or to 3-week-old mice for 10 weeks. For BrdU labeling experiments, mice were i.p. injected with 50 mg/kg BrdU (Sigma-Aldrich) before 24 hours to sacrifice. All animal procedures were approved by the Institutional Animal Care and Use Committee (IACUC) of Yonsei University (Korea) and conducted based on the guidelines of the Korean Food and Drug Administration.
Radiographic and histochemical analyses. Plain radiographs were taken using an X-ray apparatus (KODAK DXS 4000 Pro SYSTEM; Carestream Health Rochester, N.Y.). The tissues were fixed in 4% paraformaldehyde (PFA), decalcified in 10% EDTA (pH 7.4), dehydrated, embedded in paraffin, and sectioned to 4 μm thickness (Leica Microsystems, Wetzlar, Germany). The tissues sections were rehydrated and used for further analyses including H&E, TRAP, and itnmunohistochemical (IHC) staining. To perform IHC staining, the sections were incubated with citrate buffer (pH 6.0) at 80° C. for 30 minutes, with 0.05% trypsin working solution (pH 7.8) for 30 minutes at 37° C., or with 0.5% pepsin (Sigma-Aldrich) for 15 minutes at 37° C. Then, the sections were blocked with 5% normal goat serum (NGS; Vector Laboratories, Burlingame, Calif.) and 0.3% triton-x-100 in PBS for 1 hour at room temperature. For 3,3′-diaminobensidine (DAB) staining, the sections were incubated with 0.345% H2O2 for 15 minutes. Before incubating the sections with mouse primary antibody, mouse IgG was blocked using a M.O.M kit (Vector Laboratories). The sections were incubated at 4° C. overnight with the following primary antibodies: anti-β-catenin (BD Bioscience, San Jose, Calif., #610154; 1:50), anti-CXXC5 l (1:200; lab-made) anti-BrdU (DAKO, Carpinteria, Calif., M0744; 1:200), anti-COL2A1 (ThermoFisher Scientific, MA, PAS-11462; 1:100), anti-Ki67 (Abcam, Cambridge, UK, ab15580; 1:200), and anti-RUNX2 (Abeam, ab23981; 1:200). Then, the sections were incubated at room temperature for 1 hour with biotinylated anti-mouse (Vector Laboratories, BA-9200; 1:200) or biotinylated anti-rabbit (Vector Laboratories, BA-1000; 1:200) secondary antibodies. The sections were then incubated in avidin-biotin complex solutions (Vector Laboratories), stained with a DAB kit (Vector Laboratories) for 3-30 minutes, and counterstained with methyl green (Sigma-Aldrich). All incubations were conducted in humid chambers. […] For fluorescence staining, the sections were incubated with primary antibody at 4° C. overnight, followed by incubation with anti-mouse Alexa Fluor 488 (ThermoFisher Scientific, A11008; 1:200) or anti-rabbit Alex Fluor 555 (ThermoFisher Scientific, A21428; 1:200) secondary antibodies at room temperature for 1 hour. The sections were then counterstained with DAPI (Sigma-Aldrich) for 5 minutes and mounted in Gel/Mount media (Biomeda Corporation). All incubations were conducted in dark humid chambers. The fluorescent signals were visualized using a LSM700 META confocal microscope (Carl Zeiss Inc., Thornwood, N.Y.) at excitation wavelengths of 488 nm (Alexa Fluor 488), 543 nm (Alexa Fluor 555), and 405 nm (DAPI).
Immunoblot analyses. […] Protein samples were separated on a 8-12% sodium dodecylsulfate polyacrylamide gel electrophoresis (SDS-PAGE) and transferred to a nitrocellulose membrane (Whatman). […]

[3] = test system: TOPFlash Wnt reporter activity; experiment: TOPFlash Wnt reporter assay in HEK293-TOP cells; assay type: cell-based; conditions: 18 hours, FIG. 4D
Description: Reporter assay. HEK293-TOP cells were seeded into each well of a 24-well plate. The cells were treated with individual compounds at indicated concentration and cultured for 18 hours. The cells were then harvested and lysed in 60 μl of Reporter Lysis Buffer (Promega, Madison, Wis.) according to the manufacturer's instructions. After centrifugation, 20 μl of the supernatant was used to measure luciferase activity. Relative luciferase activities were normalized to that of the DMSO-treated control.

[4] = Toxicity observation during 10 weeks of treatment in mice; assay type: in vivo
Description: as §1, with “All animal procedures were approved by the Institutional Animal Care and Use Committee (IACUC) of Yonsei University (Korea) and conducted based on the guidelines of the Korean Food and Drug Administration.” left out
Radiographic and histochemical analyses. […] For fluorescence staining, the sections were incubated with primary antibody at 4° C. overnight, followed by incubation with anti-mouse Alexa Fluor 488 (ThermoFisher Scientific, A11008; 1:200) or anti-rabbit Alex Fluor 555 (ThermoFisher Scientific, A21428; 1:200) secondary antibodies at room temperature for 1 hour. […]

[5] = target: T1, CXXC5-DVL interaction (Homo sapiens, UniProt O14640); experiment: In vitro CXXC5-DVL binding assay (FITC-tagged PTD-DBMP on DVL PDZ domain); conditions: from dose-response curve, FIG. 4B
T1 construct: 5 mg/ml purified DVL PDZ domain was incubated in each well
T1 sequence (O14640 251-323 limits assumed): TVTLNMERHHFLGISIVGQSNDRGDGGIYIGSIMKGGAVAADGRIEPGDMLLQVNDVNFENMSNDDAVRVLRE

[6] = 3-week-old mice, 0.1 mg/kg daily for 2 weeks
[7] = 7-week-old mice, 0.1 mg/kg i.p. daily for 2 weeks

Compound	tibial length [1]	structural senescence of the tibial growth plate ([2]; Cxxc5−/− mice, E2 cypionate 70 μg/kg i.m. once a week for 3 weeks)	TOPFlash Wnt reporter activity [3]	histological abnormalities in articular cartilage and liver tissues ([4]; 0.1 mg/kg daily for 10 weeks)	weight during treatment ([4]; 0.1 mg/kg daily, 10 weeks of treatment, vs vehicle)	length of tibiae ([2]; 0.1 mg/kg daily for 10 weeks, mice from 3 to 13 weeks of age, vs vehicle)	height of each growth plate zone and BrdU-positive cells [2, 6]	β-catenin-expressing chondrocytes [2, 6]	number of TRAP-positive foci in the growth plate/trabecular interface ([2]; 3-week-old mice, 0.1 mg/kg daily for 2 weeks, vs vehicle)	nuclear β-catenin in growth plate chondrocytes [2, 7]	numbers of proliferative and hypertrophic chondrocytes per column (BrdU- and RUNX2-positive cells) [2, 7]	total growth plate height, monitored by COL2A1 immunostaining [2, 7]	β-catenin and chondrogenic markers (COL2A1, RUNX2, MMP13) in the growth plate, immunoblot [2, 7]	TRAP-positive foci ([2]; mice treated from 7 to 9 weeks of age, 0.1 mg/kg, vs vehicle)	IC50 [5]
17β-estradiol [Compound E2]	reduced	hardly observed	–	–	–	–	–	–	–	–	–	–	–	–	–
CO/N=C1/C(=C2/C(=O)Nc3cc(Cl)c(Cl)cc32)Nc2ccccc21 [KY19382, 5,6-dichloroindirubin-3′-methoxime]	–	–	strong enhancement	no histological abnormalities	no difference	significantly increased	elevated	increased	not different	dramatically increased	increased numbers	significantly increased	increased	elevated	19 nM

— patent US20210323918A1, “COMPOSITIONS AND METHODS FOR SUPPRESSING AND/OR TREATING A GROWTH RELATED DISEASE AND/OR A CLINICAL CONDITION THEREOF” (CK Biotech Inc., priority 2018, published 2021)
